Type in all cases: cell-based
The subject of test [1] is Wnt activity (Sp5-Luc reporter, TCF/LEF binding sites) in SW480 colon carcinoma cells. The experiment in a line: Screening assay for Wnt activity: Sp5-Luc reporter gene assay in stably transduced SW480 cells. The settings on record: Homo sapiens, overnight incubation. The source says:
The screening assay for Wnt activity is described as follows. Reporter cell lines can be generated by stably transducing cancer cell lines (e.g., colon cancer) or primary cells (e.g., IEC-6 intestinal cells) with a lentiviral construct that includes a Wnt-responsive promoter driving expression of the firefly luciferase gene.
SW480 colon carcinoma cells were transduced with a lentiviral vector expressing luciferase with a human Sp5 promoter consisting of a sequence of eight TCF/LEF binding sites. SW480 cells stably expressing the Sp5-Luc reporter gene and a hygromycin resistance gene were selected by treatment with 150 μg/mL of hygromycin for 7 days. These stably transduced SW480 cells were expanded in cell culture and used for all further screening activities. Each compound was dissolved in DMSO as a 10 mM stock and used to prepare compound source plates. Serial dilution (1:3, 10-point dose-response curves starting from 10 μM) and compound transfer was performed using the ECHO 550 (Labcyte, Sunnyvale, Calif.) into 384-well white solid bottom assay plates (Greiner Bio-One) with appropriate DMSO backfill for a final DMSO concentration of 0.1%. For Sp5-Luc reporter gene assays, the cells were plated at 4,000 cells/well in 384-well plates with medium containing 1% fetal bovine serum and incubated overnight at 37° C. and 5% CO2. Following incubation, 20 μl of BrightGlo luminescence reagent (Promega) was added to each well of the 384-well assay plates. The plates were placed on an orbital shaker for 2 min and then luminescence was quantified using the Envision (Perkin Elmer) plate reader. Readings were normalized to DMSO only treated cells, and normalized activities were utilized for EC50 calculations using the dose-response log (inhibitor) vs. response-variable slope (four parameters) nonlinear regression feature available in GraphPad Prism 5.0 (or Dotmatics). For EC50 of >10 μM, the percent inhibition at 10 μM is provided.
On the technique in general: Reporter assays use an easily measured gene product as a stand-in for the process of interest.

Another test deals with SW480 colon cancer cells. The experiment in a line: Cell viability assay (CellTiter-Blue) in SW480 colon cancer cells. To be noted: Homo sapiens, 96 h, four days, CellTiter-Blue. As to the method: Representative compounds were screened using the following assay procedure to assess the effect on cell viability as described below.
Each compound was dissolved in DMSO as a 10 mM stock and used to prepare compound source plates. Serial dilution (1:3, 8-point dose-response curves from 10 μM to 0.0045 μM) and compound transfer was performed using the ECHO 550 (Labcyte, Sunnyvale, Calif.) into 96-well clear bottom, black-walled plates (Corning-Costar).
Approximately 2×10^3 SW480 colon cancer cells were seeded into each well and allowed to incubate in the presence or absence of compound for four days at 37° C./5% CO2. Eight replicates of DMSO-treated cells served as controls and cells treated with compound were performed in duplicate.
After incubation, 20 μL of CellTiter-Blue (Promega) was added to each well allowed to incubate for approximately 3 hours. This reagent was a buffered solution which contains resazurin, metabolically active cells were able to reduce rezarurin (blue) into resorufin (pink) which was highly fluorescent. This measured fluorescence was used as a readout for cell viability.
After incubation, the plates were read at Ex 560 nm Em 590 nm (Cytation 3, BioTek). Dose-response curves were generated and EC50 concentration values were calculated using non-linear regression curve fit in the GraphPad Prism (San Diego, Calif.) or Dotmatics' Studies Software (Bishops Stortford, UK). For EC50 of >10 μM, the percent inhibition at 10 μM is provided.
For orientation: The colour change of resazurin is a common sign of viable cells or microbes.

Test [2] has as its system primary human fibroblasts derived from IPF patients (LL29 cells) treated with TGF-β1; α-smooth muscle actin (αSMA). Briefly: Inhibition of the fibrotic process: αSMA staining in TGF-β1 treated primary human fibroblasts from IPF patients (LL29 cells). To be noted: Fibroblast, 96 h, TGF-β1 20 ng/mL, 4 days, % cells positive for αSMA. The source says: Representative compounds were screened using primary human fibroblasts (derived from IPF patients) treated with TGF-β1 to determine their ability to inhibit the fibrotic process.
Primary human fibroblasts derived from IPF patients (LL29 cells) [^1Xiaoqiu Liu, et. al., “Fibrotic Lung Fibroblasts Show Blunted Inhibition by cAMP Due to Deficient cAMP Response Element-Binding Protein Phosphorylation”, Journal of Pharmacology and Experimental Therapeutics (2005), 315(2), 678-687; ^2Watts, K. L., et. al., “RhoA signaling modulates cyclin D1 expression in human lung fibroblasts; implications for idiopathic pulmonary fibrosis”, Respiratory Research (2006), 7(1), 88] were obtained from American Type Culture Collection (ATCC) and expanded in F12 medium supplemented with 15% Fetal Bovine Serum and Penicillin/Streptomycin.
Each compound was dissolved in DMSO as a 10 mM stock and used to prepare compound source plates. Serial dilution (1:2, 11-point dose-response curves from 10 μM to 1.87 nM) and compound transfer was performed using the ECHO 550 (Labcyte, Sunnyvale, Calif.) into 384-well clear bottom assay plates (Greiner Bio-One) with appropriate DMSO backfill for a final DMSO concentration of 0.1%. LL29 cells are plated at 1,500 cells/well in 80 μL/well F12 medium supplemented with 1% Fetal Bovine Serum. One hour after addition of the cells, TGF-β1 (Peprotech; 20 ng/mL) was added to the plates to induce fibrosis (ref. 1 and 2 above). Wells treated with TGF-β1 and containing DMSO were used as controls. Cells were incubated at 37° C. and 5% CO2 for 4 days. Following incubation for 4 days, SYTOX green nucleic acid stain (Life Technologies [Thermo Fisher Scientific]) was added to the wells at a final concentration of 1 μM and incubated at room temperature for 30 min. Cells were then fixed using 4% formaldehyde (Electron Microscopy Sciences), washed 3 times with PBS followed by blocking and permeabilization using 3% Bovine Serum Albumin (BSA; Sigma) and 0.3% Triton X-100 (Sigma) in PBS. Cells were then stained with antibody specific to α-smooth muscle actin (αSMA; Abcam) (ref. 1 and 2 above) in 3% Bovine Serum Albumin (BSA; Sigma) and 0.3% Triton X-100 (Sigma) in PBS, and incubated overnight at 4° C. Cells were then washed 3 times with PBS, followed by incubation with Alexa Flor-647 conjugated secondary antibody (Life Technologies [Thermo Fisher Scientific]) and DAPI at room temperature for 1 hour. Cells were then washed 3 times with PBS and plates were sealed for imaging. αSMA staining was imaged by excitation at 630 nm and emission at 665 nm and quantified using the Compartmental Analysis program on the CellInsight CX5 (Thermo Scientific). Dead or apoptotic cells were excluded from analysis based on positive SYTOX green staining. % of total cells positive for αSMA were counted in each well and normalized to the average of 11 wells treated with TGF-β1 on the same plate using Dotmatics' Studies Software. The normalized averages (fold change over untreated) of 3 replicate wells for each compound concentration were used to create dose-responses curves and EC50 values were calculated using non-linear regression curve fit in the Dotmatics' Studies Software. For EC50 of >10 μM, the percent inhibition at 10 μM is provided.

The test system of the next test is IL-6 (THP-1 cells). The experiment in a line: Inhibition of IL-6 in LPS-stimulated THP-1 human monocyte cells (HTRF). To be noted: inhibition of IL-6 in LPS-stimulated THP-1 cells, HTRF, 10-point dose-response starting from 10 μM. The method, then:
Human monocyte cell line (THP-1 cells; Catalog # TIB-202, ATCC, Manassas, Va.) were cultured in Roswell Park Memorial Institute (RPMI) 1640 Medium (Catalog #21870-100, Buffalo, N.Y.) with 1% L-glutamine, 1% HEPES, 1% Sodium Pyruvate, 2% Sodium Bicarbonate supplemented with 100 units/mL penicillin, 50 μg/mL streptomycin, 2-mercaptoethanol (0.05 mM) [basal medium] and 10% fetal bovine serum (Catalog #16140089, Life Technologies, Carlsbad, Calif.) at 37° C. and 5% CO2.
THP-1 cells were cultured in basal media with 1% FBS for 24 hours before the start of the assay. Each compound was dissolved in DMSO as a 10 mM stock and used to prepare compound source plates. Serial dilution (1:3, 10-point dose-response curves starting from 10 μM) and compound transfer was performed using the ECHO 550 (Labcyte, Sunnyvale, Calif.) into 384-well white low volume assay plates (Greiner Bio-One) with appropriate DMSO backfill for a final DMSO concentration of 0.1%. THP-1 cells were plated at 5000 cells/well in the 384-well plates and incubated at 37° C. for 2 h. 500 ng/mL of LPS was added after 2 hours and cells were incubated for another 22 hours at 37° C. Plates were spun in a centrifuge for 1 minute at […] and a mixture of anti-IL6 XL665, and anti-IL6 Cryptate diluted in reconstitution buffer (Cisbio Inc.) was added to each well. Following incubation for 3 hrs at room temperature, Homogeneous Time-Resolved Fluorescence (HTRF) was measured using the Envision (Perkin Elmer) at 665 nm and […]. The ratio of fluorescence at 665 nm to 620 nm was used as a readout for IL6 quantification. All samples were processed in duplicate. Readings were normalized to DMSO treated cells and normalized activities were utilized for EC50 calculations using the dose-response log (inhibitor) vs. response-variable slope (four parameters) nonlinear regression feature available in GraphPad Prism 5.0 (or Dotmatics). For EC50 of >10 μM, the percent inhibition at 10 μM is provided.

For orientation: EC50 means the concentration giving half of the maximal effect. A higher EC50 goes with a need for much substance. `FC1(F)CCN(Cc2cncc(-c3cc4c(-c5cc6c(-c7cccnc7)cccc6[nH]5)n[nH]c4cn3)c2)C1` [Compound 110, 5-(5-((3,3-Difluoropyrrolidin-1-yl)methyl)pyridin-3-yl)-3-(4-(pyridin-3-yl)-1H-indol-2-yl)-1H-pyrazolo[3,4-c]pyridine]: the EC50 was determined as 137 nM in test [1], 1070 nM in the test with SW480 colon cancer cells, 81 nM in test [2] and 422 nM with IL-6 (THP-1 cells).

For the compound `CC(C)CC(=O)Nc1cncc(-c2cc3c(-c4cc5c(-c6ccncc6)cccc5[nH]4)n[nH]c3cn2)c1` [Compound 114, 3-Methyl-N-(5-(3-(4-(pyridin-4-yl)-1H-indol-2-yl)-1H-pyrazolo[3,4-c]pyridin-5-yl)pyridin-3-yl)butanamide], the EC50 in test [1] is 469 nM; in the test on SW480 colon cancer cells it was 6980 nM; in test [2], 33 nM; in the test on IL-6 (THP-1 cells), 1080 nM.

In the case of `CC(C)Nc1cncc(-c2cc3c(-c4cc5c(-c6ccncc6)cccc5[nH]4)n[nH]c3cn2)c1` [Compound 124, N-Isopropyl-5-(3-(4-(pyridin-4-yl)-1H-indol-2-yl)-1H-pyrazolo[3,4-c]pyridin-5-yl)pyridin-3-amine], the concentration giving a half-maximal response (EC50) came to 108 nM in test [1], 5830 nM in the test on SW480 colon cancer cells, 138 nM in test [2] and 3350 nM in the test with IL-6 (THP-1 cells).

For `c1ccc(-c2cc3c(-c4cc5c(-c6ccncc6)cccc5[nH]4)n[nH]c3cn2)nc1` [Compound 140, 5-(Pyridin-2-yl)-3-(4-(pyridin-4-yl)-1H-indol-2-yl)-1H-pyrazolo[3,4-c]pyridine], the EC50 in test [1] is 485 nM; in the test on SW480 colon cancer cells, 370 nM; in test [2], 319 nM; with IL-6 (THP-1 cells), 481 nM.

Turning to `O=C(Cc1ccccc1)Nc1cncc(-c2cc3c(-c4cc5c(-c6ccccn6)cccc5[nH]4)n[nH]c3cn2)c1` [Compound 150, 2-Phenyl-N-(5-(3-(4-(pyridin-2-yl)-1H-indol-2-yl)-1H-pyrazolo[3,4-c]pyridin-5-yl)pyridin-3-yl)acetamide], the EC50 is 1420 nM in test [1], 2970 nM in the test with SW480 colon cancer cells, 531 nM in test [2] and 2020 nM with IL-6 (THP-1 cells).

Take `O=C(Nc1cncc(-c2cc3c(-c4cc5c(-c6ccccn6)cccc5[nH]4)n[nH]c3cn2)c1)C1CCCCC1` [Compound 163, N-(5-(3-(4-(Pyridin-2-yl)-1H-indol-2-yl)-1H-pyrazolo[3,4-c]pyridin-5-yl)pyridin-3-yl)cyclohexanecarboxamide]: the concentration for a half-maximal effect (EC50) in test [1] was determined as 550 nM; with SW480 colon cancer cells it was 938 nM; in test [2] it was 81 nM; with IL-6 (THP-1 cells) it was 2490 nM.

Take `CC(C)CC(=O)Nc1cncc(-c2cc3c(-c4cc5c(N6CCCCC6)cccc5[nH]4)n[nH]c3cn2)c1` [Compound 170, 3-Methyl-N-(5-(3-(4-(piperidin-1-yl)-1H-indol-2-yl)-1H-pyrazolo[3,4-c]pyridin-5-yl)pyridin-3-yl)butanamide]: the EC50 was 1330 nM in test [1], 4650 nM in the test with SW480 colon cancer cells, 902 nM in test [2] and 4290 nM in the test on IL-6 (THP-1 cells).

Turning to `CCNCc1cncc(-c2cc3c(-c4cc5c(N6CCCCC6)cccc5[nH]4)n[nH]c3cn2)c1` [Compound 174, N-((5-(3-(4-(Piperidin-1-yl)-1H-indol-2-yl)-1H-pyrazolo[3,4-c]pyridin-5-yl)pyridin-3-yl)methyl)ethanamine], the 50% effective concentration (EC50) in test [1] turned out to be 553 nM; in the test on SW480 colon cancer cells it was 1080 nM; in test [2], 650 nM; in the test with IL-6 (THP-1 cells) it was 167 nM.

With `CC(C)(C)C(=O)Nc1cncc(-c2cc3c(-c4cc5c(N6CCCCC6)cccc5[nH]4)n[nH]c3cn2)c1` [Compound 176, N-(5-(3-(4-(Piperidin-1-yl)-1H-indol-2-yl)-1H-pyrazolo[3,4-c]pyridin-5-yl)pyridin-3-yl)pivalamide], the EC50 in test [1] was determined as 3040 nM; with SW480 colon cancer cells, 7140 nM; in test [2], 700 nM; in the test with IL-6 (THP-1 cells) it was 8890 nM.

Values taken from patent US10166218B2, “3-(1H-indol-2-yl)-1H-pyrazolo[3,4-C]pyridines and therapeutic uses thereof” (Samumed, LLC, priority 2015, dated 2019).
